# Experimental data reported in patent US20230219931A1, “FUSED HETEROARYL HYDROXAMATES AS STING AGONISTS” (BiSiChem Co., Ltd., priority 2022, published 2023).
# Where a name gives a salt, the structure may show the parent alone.
# Test system: ISG reporter activity in THP1-Dual cell
# Experiment: ISG reporter assay
# Format: cell-based
# Conditions: Homo sapiens, compounds incubated with cells for 24 hours, QUANTI-Blue, absorbance at 655 nm
row,EC50 [nM],Compound
1,50 to 500,"CCn1nc(C)cc1C(=O)Nc1nc2cc(C(N)=O)cc(OC)c2n1C/C=C/Cn1c(NC(=O)c2cc(C)nn2CC)nc2cc(C(N)=O)cc(OCC#CCC3CCNCC3)c21 [Example 43, (E)-1-(4-(5-carbamoyl-2-(1-ethyl-3-methyl-1H-pyrazole-5-carboxamido)-7-((4-(piperidin-4-yl)but-2-yn-1-yl)oxy)-1H-benzo[d]imidazol-1-yl)but-2-en-1-yl)-2-(1-ethyl-3-methyl-1H-pyrazole-5-carboxamido)-7-methoxy-1H-benzo[d]imidazole-5-carboxamide hydrochloride]"
2,< 50,"CCn1nc(C)cc1C(=O)Nc1nc2cc(C(N)=O)cc(OC)c2n1C/C=C/Cn1c(NC(=O)c2cc(C)nn2CC)nc2cc(C(N)=O)cc(OCC#CCC3CCN(C(=O)OC4CC4)CC3)c21 [Example 44, cyclopropyl (E)-4-(4-((5-carbamoyl-1-(4-(5-carbamoyl-2-(1-ethyl-3-methyl-1H-pyrazole-5-carboxamido)-7-methoxy-1H-benzo[d]imidazol-1-yl)but-2-en-1-yl)-2-(1-ethyl-3-methyl-1H-pyrazole-5-carboxamido)-1H-benzo[d]imidazol-7-yl)oxy)but-2-yn-1-yl)piperidine-1-carboxylate]"
3,< 50,"CCn1nc(C)cc1C(=O)Nc1nc2cc(C(N)=O)cc(OC)c2n1C/C=C/Cn1c(NC(=O)c2cc(C)nn2CC)nc2cc(C(N)=O)cc(OCC#CCC3CCN(C(=O)OCCO)CC3)c21 [Example 45, 2-hydroxyethyl (E)-4-(4-((5-carbamoyl-1-(4-(5-carbamoyl-2-(1-ethyl-3-methyl-1H-pyrazole-5-carboxamido)-7-methoxy-1H-benzo[d]imidazol-1-yl)but-2-en-1-yl)-2-(1-ethyl-3-methyl-1H-pyrazole-5-carboxamido)-1H-benzo[d]imidazol-7-yl)oxy)but-2-yn-1-yl)piperidine-1-carboxylate]"
4,< 50,"CCn1nc(C)cc1C(=O)Nc1nc2cc(C(N)=O)cc(OC)c2n1C/C=C/Cn1c(NC(=O)c2cc(C)nn2CC)nc2cc(C(N)=O)cc(OCC#CCC3CCN(C(=O)C4CCN(C(=O)OC(C)(C)C)CC4)CC3)c21 [Example 46, tert-butyl (E)-4-(4-(4-((5-carbamoyl-1-(4-(5-carbamoyl-2-(1-ethyl-3-methyl-1H-pyrazole-5-carboxamido)-7-methoxy-1H-benzo[d]imidazol-1-yl)but-2-en-1-yl)-2-(1-ethyl-3-methyl-1H-pyrazole-5-carboxamido)-1H-benzo[d]imidazol-7-yl)oxy)but-2-yn-1-yl)piperidine-1-carbonyl)piperidine-1-carboxylate]"
5,< 50,"CCn1nc(C)cc1C(=O)Nc1nc2cc(C(N)=O)cc(OC)c2n1C/C=C/Cn1c(NC(=O)c2cc(C)nn2CC)nc2cc(C(N)=O)cc(OCC#CCC3CCN(C(=O)N4CCN(C(=O)OC(C)(C)C)CC4)CC3)c21 [Example 47, tert-butyl (E)-4-(4-(4-((5-carbamoyl-1-(4-(5-carbamoyl-2-(1-ethyl-3-methyl-1H-pyrazole-5-carboxamido)-7-methoxy-1H-benzo[d]imidazol-1-yl)but-2-en-1-yl)-2-(1-ethyl-3-methyl-1H-pyrazole-5-carboxamido)-1H-benzo[d]imidazol-7-yl)oxy)but-2-yn-1-yl)piperidine-1-carbonyl)piperazine-1-carboxylate]"
6,< 50,"CCn1nc(C)cc1C(=O)Nc1nc2cc(C(N)=O)cc(OC)c2n1C/C=C/Cn1c(NC(=O)c2cc(C)nn2CC)nc2cc(C(N)=O)cc(OCC#CCC3CCN(S(=O)(=O)C4CC4)CC3)c21 [Example 48, (E)-1-(4-(5-carbamoyl-2-(1-ethyl-3-methyl-1H-pyrazole-5-carboxamido)-7-methoxy-1H-benzo[d]imidazol-1-yl)but-2-en-1-yl)-7-((4-(1-(cyclopropylsulfonyl)piperidin-4-yl)but-2-yn-1-yl)oxy)-2-(1-ethyl-3-methyl-1H-pyrazole-5-carboxamido)-1H-benzo[d]imidazole-5-carboxamide]"
7,< 50,"CCn1nc(C)cc1C(=O)Nc1nc2cc(C(N)=O)cc(OC)c2n1C/C=C/Cn1c(NC(=O)c2cc(C)nn2CC)nc2cc(C(N)=O)cc(OCC#CCC3CCN(S(=O)(=O)N4CCN(C(=O)OC(C)(C)C)CC4)CC3)c21 [Example 49, tert-butyl (E)-4-((4-(4-((5-carbamoyl-1-(4-(5-carbamoyl-2-(1-ethyl-3-methyl-1H-pyrazole-5-carboxamido)-7-methoxy-1H-benzo[d]imidazol-1-yl)but-2-en-1-yl)-2-(1-ethyl-3-methyl-1H-pyrazole-5-carboxamido)-1H-benzo[d]imidazol-7-yl)oxy)but-2-yn-1-yl)piperidin-1-yl)sulfonyl)piperazine-1-carboxylate]"
8,< 50,"CCn1nc(C)cc1C(=O)Nc1nc2cc(C(N)=O)cc(OC)c2n1C/C=C/Cn1c(NC(=O)c2cc(C)nn2CC)nc2cc(C(N)=O)cc(OCC#CCC3CN(C(=O)OC(C)(C)C)C3)c21 [Example 50, tert-butyl (E)-3-(4-((5-carbamoyl-1-(4-(5-carbamoyl-2-(1-ethyl-3-methyl-1H-pyrazole-5-carboxamido)-7-methoxy-1H-benzo[d]imidazol-1-yl)but-2-en-1-yl)-2-(1-ethyl-3-methyl-1H-pyrazole-5-carboxamido)-1H-benzo[d]imidazol-7-yl)oxy)but-2-yn-1-yl)azetidine-1-carboxylate]"
9,< 50,"CCn1nc(C)cc1C(=O)Nc1nc2cc(C(N)=O)cc(OC)c2n1C/C=C/Cn1c(NC(=O)c2cc(C)nn2CC)nc2cc(C(N)=O)cc(OCC#CCC3CCN(C(=O)OC(C)(C)C)C3)c21 (stereo not shown) [Example 51, tert-butyl (E)-3-(4-((5-carbamoyl-1-(4-(5-carbamoyl-2-(1-ethyl-3-methyl-1H-pyrazole-5-carboxamido)-7-methoxy-1H-benzo[d]imidazol-1-yl)but-2-en-1-yl)-2-(1-ethyl-3-methyl-1H-pyrazole-5-carboxamido)-1H-benzo[d]imidazol-7-yl)oxy)but-2-yn-1-yl)pyrrolidine-1-carboxylate]"
10,< 50,"CCn1nc(C)cc1C(=O)Nc1nc2cc(C(N)=O)cc(OC)c2n1C/C=C/Cn1c(NC(=O)c2cc(C)nn2CC)nc2cc(C(N)=O)cc(OCC#CCC3CCCN(C(=O)OC(C)(C)C)C3)c21 (stereo not shown) [Example 52, tert-butyl (E)-3-(4-((5-carbamoyl-1-(4-(5-carbamoyl-2-(1-ethyl-3-methyl-1H-pyrazole-5-carboxamido)-7-methoxy-1H-benzo[d]imidazol-1-yl)but-2-en-1-yl)-2-(1-ethyl-3-methyl-1H-pyrazole-5-carboxamido)-1H-benzo[d]imidazol-7-yl)oxy)but-2-yn-1-yl)piperidine-1-carboxylate]"
